This note sets out measurements from patent publication US4804656A, “Novel androstane-17β-carboxylic acid esters” (Aktiebolaget Draco, priority 1985, dated 1989).

In this assay the target is T1, glucocorticoid receptor (Rattus norvegicus, UniProt P06536).
T1 construct: The thymus was removed and put into ice-cold saline; The tissue was homogenized in a Potter Elvehjem homogenizer; from tissue; host or cells: thymus of male Sprague-Dawley rats, 20,000×g supernatant of homogenate
T1 sequence (P06536 1-795): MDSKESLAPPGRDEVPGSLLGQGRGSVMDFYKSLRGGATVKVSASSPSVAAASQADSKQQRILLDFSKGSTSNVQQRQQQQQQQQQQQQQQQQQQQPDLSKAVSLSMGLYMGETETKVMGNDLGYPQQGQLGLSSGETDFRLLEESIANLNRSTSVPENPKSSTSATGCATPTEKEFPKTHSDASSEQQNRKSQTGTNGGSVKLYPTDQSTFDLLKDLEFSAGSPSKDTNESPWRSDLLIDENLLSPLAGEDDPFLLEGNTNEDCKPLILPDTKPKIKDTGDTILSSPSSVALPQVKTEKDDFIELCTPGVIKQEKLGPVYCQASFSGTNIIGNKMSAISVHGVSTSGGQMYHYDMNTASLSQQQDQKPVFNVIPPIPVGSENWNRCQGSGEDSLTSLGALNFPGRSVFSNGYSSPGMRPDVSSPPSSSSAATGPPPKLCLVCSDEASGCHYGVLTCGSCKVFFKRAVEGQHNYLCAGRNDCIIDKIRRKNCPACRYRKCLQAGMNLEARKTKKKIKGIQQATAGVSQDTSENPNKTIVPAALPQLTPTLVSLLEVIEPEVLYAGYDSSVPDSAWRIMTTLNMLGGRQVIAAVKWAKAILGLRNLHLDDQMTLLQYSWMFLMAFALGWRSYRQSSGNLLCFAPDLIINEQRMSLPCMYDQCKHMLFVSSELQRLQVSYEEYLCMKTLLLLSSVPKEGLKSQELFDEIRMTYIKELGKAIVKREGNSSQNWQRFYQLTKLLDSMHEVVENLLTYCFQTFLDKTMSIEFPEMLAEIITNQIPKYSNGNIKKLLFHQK
Briefly: Affinity to the glucocorticoid receptor: competition with 3H-labelled dexamethasone in rat thymus 20,000×g supernatant. Conditions: curves compared at the 50% specific binding level, referenced to budesonide = 1, 3 nM 3H-dexamethasone, about 24 h at 0° C. How it is done:
All steroids according to the present invention are physiologically active compounds. The affinity of the novel androstane-17β-carboxylic acid esters to the glucocorticoid receptor has been used as a model for determination of the anti-inflammatory potency.
Male Sprague-Dawley rats, one to two months of age, were used throughout the investigation. The thymus was removed and put into ice-cold saline. The tissue was homogenized in a Potter Elvehjem homogenizer in 10 ml of a buffer containing 20 mM Tris, pH 7.4, 10% (w/v) glycerol, 1 mM EDTA, 20 mM NaMoO4, 10 mM mercaptoethanol. The homogenate was centrifuged for 15 min at 20,000×g. Portions of the 20,000×g supernatant (230 μl) were incubated for about 24 h at 0° C. with 100 μl phenylmethylsulphonylfluoride (an esterase inhibitor, final conc. 0.5 mM), 20 μl unlabelled competitor and 50 μl ^3 H-labelled dexamethasone (final conc. 3 nM). Bound and free steroid were separated by incubating the mixture with 60 μl 2.5% (w/v) charcoal and 0.25% (w/v) dextran T70 suspension in […], pH 7.4, 1 mM EDTA, and […] for 10 min at 0° C. Following a centrifugation at 500×g for 10 min, 230 μl of the supernatant was counted in 10 ml Insta-Gel in a Packard scintillation spectrophotometer. The supernatants were incubated with a) [^3 H]dexamethasone alone, b) [^3 H] dexamethasone plus 1000 fold excess of unlabelled dexamethasone and c) [^3 H] dexamethasone plus 0.03-300 fold "excess" competitor. The nonspecific binding was determined when 1000 fold excess of unlabelled dexamethasone was added to [^3 H]-labelled dexamethasone.
The radioactivity bound to the receptor in the presence of competitor divided by the radioactivity bound to the receptor in the absence of competitor multiplied by 100 gives the percentage specific binding of labelled dexamethasone. For each concentration of a competitor the percentage specifically bound radioactivity is plotted against the log of concentration of competitor. The curves are compared at the 50% specific binding level and reference to budesonide, which is assigned a relative binding affinity (RBA) of 1.

Take `CCOC(=O)OC(C)OC(=O)[C@@]1(OC(=O)CC)[C@@H](C)C[C@H]2[C@@H]3CCC4=CC(=O)C=C[C@]4(C)[C@@]3(F)[C@@H](O)C[C@@]21C` (single isomer, unassigned) [1 (epimer B), 1'-ethoxycarbonyloxyethyl 9α-fluoro-11β-hydroxy-16β-methyl-3-oxo-17α-propionyloxyandrosta-1,4-diene-17β-carboxylate]: the “RBA (relative binding affinity)” value is listed as 0.80.
Then `CCC(=O)O[C@]1(C(=O)OC(C)OC(=O)NC(C)C)[C@@H](C)C[C@H]2[C@@H]3CCC4=CC(=O)C=C[C@]4(C)[C@@]3(F)[C@@H](O)C[C@@]21C` (single isomer, unassigned) [2 (epimer B), 1'-isopropylcarbamoyloxyethyl 9α-fluoro-11β-hydroxy-16β-methyl-3-oxo-17α-propionyloxyandrosta-1,4-diene-17β-carboxylate], with 0.14.
Consider `CCCCC(=O)O[C@]1(C(=O)OC(C)OC(=O)N(CC)CC)[C@@H](C)C[C@H]2[C@@H]3CCC4=CC(=O)C=C[C@]4(C)[C@@]3(F)[C@@H](O)C[C@@]21C` (single isomer, unassigned) [3 (epimer B), 1'-diethylcarbamoyloxyethyl 9αfluoro-11β-hydroxy-16β-methyl-3-oxo-17α-valeroyloxyandrosta-1,4-diene-17β-carboxylate], for which the “RBA (relative binding affinity)” value turned out to be 0.47.
Then `CCC(=O)O[C@]1(C(=O)OC(C)OC(C)=O)[C@@H](C)C[C@H]2[C@@H]3CCC4=CC(=O)C=C[C@]4(C)[C@@]3(F)[C@@H](O)C[C@@]21C` (single isomer, unassigned) [4 (epimer B), 1'-acetyloxyethyl 9α-fluoro-11β-hydroxy-16β-methyl-3-oxo-17α-propionyloxyandrosta-1,4-diene-17β-carboxylate], with 0.69; and `CCC(=O)O[C@]1(C(=O)OC(C)OC(=O)OCc2ccc([N+](=O)[O-])cc2)[C@@H](C)C[C@H]2[C@@H]3CCC4=CC(=O)C=C[C@]4(C)[C@@]3(F)[C@@H](O)C[C@@]21C` (single isomer, unassigned) [Example 19b], with 0.53; and `CCOC(=O)OC(C)OC(=O)[C@@]1(OC(=O)CC)[C@H](C)C[C@H]2[C@@H]3C[C@H](F)C4=CC(=O)C=C[C@]4(C)[C@@]3(F)[C@@H](O)C[C@@]21C` (single isomer, unassigned) [Example 26b], with 0.45.
`CCC(=O)O[C@]1(C(=O)OC(C)OC(=O)OC)[C@@H](C)C[C@H]2[C@@H]3CCC4=CC(=O)C=C[C@]4(C)[C@@]3(F)[C@@H](O)C[C@@]21C` (stereo partly shown) [Example 6b]: the “RBA (relative binding affinity)” value amounted to 0.42.
`CCCOC(=O)OC(C)OC(=O)[C@@]1(OC(=O)CC)[C@@H](C)C[C@H]2[C@@H]3CCC4=CC(=O)C=C[C@]4(C)[C@@]3(F)[C@@H](O)C[C@@]21C` (stereo partly shown) [Example 7b]: the “RBA (relative binding affinity)” value was determined as 0.95.
Then `CCC(=O)O[C@]1(C(=O)OC(C)OC(=O)OC(C)C)[C@@H](C)C[C@H]2[C@@H]3CCC4=CC(=O)C=C[C@]4(C)[C@@]3(F)[C@@H](O)C[C@@]21C` (stereo partly shown) [Example 8b], with 1.50.
Then `C=CCOC(=O)OC(C)OC(=O)[C@@]1(OC(=O)CC)[C@@H](C)C[C@H]2[C@@H]3CCC4=CC(=O)C=C[C@]4(C)[C@@]3(F)[C@@H](O)C[C@@]21C` (stereo partly shown) [Example 9b], with 0.39; and `CCC(=O)O[C@]1(C(=O)OC(C)OC(=O)OCC(C)C)[C@@H](C)C[C@H]2[C@@H]3CCC4=CC(=O)C=C[C@]4(C)[C@@]3(F)[C@@H](O)C[C@@]21C` (stereo partly shown) [Example 10b], with 0.82.
Then `CCC(=O)O[C@]1(C(=O)OC(C)OC(=O)OC2CCC2)[C@@H](C)C[C@H]2[C@@H]3CCC4=CC(=O)C=C[C@]4(C)[C@@]3(F)[C@@H](O)C[C@@]21C` (stereo partly shown) [Example 13b], with 1.3.
As to `CCC(=O)O[C@]1(C(=O)OC(C)OC(=O)OC2CCCC2)[C@@H](C)C[C@H]2[C@@H]3CCC4=CC(=O)C=C[C@]4(C)[C@@]3(F)[C@@H](O)C[C@@]21C` (stereo partly shown) [Example 14b], the “RBA (relative binding affinity)” value is 1.2.
As for `CCC(=O)O[C@]1(C(=O)OC(C)OC(=O)OC2CCCCC2)[C@@H](C)C[C@H]2[C@@H]3CCC4=CC(=O)C=C[C@]4(C)[C@@]3(F)[C@@H](O)C[C@@]21C` (stereo partly shown) [Example 15b], the figure is 0.54; as for `C=C(C)COC(=O)OC(C)OC(=O)[C@@]1(OC(=O)CC)[C@@H](C)C[C@H]2[C@@H]3CCC4=CC(=O)C=C[C@]4(C)[C@@]3(F)[C@@H](O)C[C@@]21C` (stereo partly shown) [Example 16b], 0.51.
`CCCCC(=O)O[C@]1(C(=O)OC(C)OC(=O)OC(C)C)[C@@H](C)C[C@H]2[C@@H]3CCC4=CC(=O)C=C[C@]4(C)[C@@]3(F)[C@@H](O)C[C@@]21C` (stereo partly shown) [Example 22b]: the “RBA (relative binding affinity)” value came out at 0.77.
For `CCOC(=O)OC(C)OC(=O)[C@@]1(OC(=O)CC)[C@H](C)C[C@H]2[C@@H]3CCC4=CC(=O)C=C[C@]4(C)[C@@]3(F)[C@@H](O)C[C@@]21C` (stereo partly shown) [Example 24b], the “RBA (relative binding affinity)” value is reported as 0.55.
In the case of `CCOC(=O)OC(C)OC(=O)[C@@]1(OC(=O)CC)[C@@H](C)C[C@H]2[C@@H]3CCC4=CC(=O)C=C[C@]4(C)[C@@]3(Cl)[C@@H](O)C[C@@]21C` (stereo partly shown) [Example 28b], the “RBA (relative binding affinity)” value is on record as 1.0.
Then `CCC(=O)O[C@]1(C(=O)OC(C)OC(=O)OCC2CC2)[C@@H](C)C[C@H]2[C@@H]3CCC4=CC(=O)C=C[C@]4(C)[C@@]3(Cl)[C@@H](O)C[C@@]21C` (stereo partly shown) [Example 32b], with 0.86.
